Measured values as given in US7902144B2, “Therapeutic and diagnostic ligand systems comprising transport molecule binding properties and medicaments containing the same” (KTB Tumorforschungsgesellschaft mbH, priority 2000, dated 2011).

Columns and labels:
HSA = HSA (Homo sapiens, UniProt P02768); test: Incubation with HSA followed by size-exclusion chromatography (Sephadex G-25); format: binding; conditions: incubation of only a few seconds with HSA (or blood plasma), mole ratio 1:1, Sephadex G-25
[1] = biological target: T1, human serum albumin (HSA) (Homo sapiens, UniProt P02768); test: Binding constant relative to HSA as stated in text
T1 construct: purchased Dessau company, Germany
Source text: Thus BC-DOX1, after being brought into contact with HSA or after injection into the bloodstream, is tightly bound to that blood protein. Since BC-DOX1 in addition has a sulfonylhydrazone bond as an acid-labile bond between the carrier-molecule-affinitive substance and the cytostatic agent, in the acid environment of tumor tissue or in the acid intracellular compartments of the tumor cell, doxorubicin is released as the active substance so it can exert its therapeutic effect there.

transferrin = transferrin (Homo sapiens, UniProt P02787); test: Incubation with transferrin followed by size-exclusion chromatography (Sephadex G-25); format: binding
[2] = biological target: T1, human serum albumin (HSA); test: Binding constants relative to HSA by equilibrium dialysis (Scatchard plot); conditions: pH 7.4, Scatchard plot
Source text: A Scatchard plot is used to determine the binding constants relative to human serum albumin (HSA from the Dessau company, Germany) at pH 7.4 by means of equilibrium dialysis (equilibrium dialyzer from Spectrum, Inc., USA; dialysis membrane: cut-off MW 10000) for the prepared doxorubicin derivatives, all including an acid-labile hydrazone bond as the predetermined breaking point, and for doxorubicin.

[3] = biological target: T1, human serum albumin (HSA); conditions: Literature value (Demant et al., Biochemical Pharmacology 55, 27-32, 1998); cited from earlier work

T1 sequence (P02768 25-609): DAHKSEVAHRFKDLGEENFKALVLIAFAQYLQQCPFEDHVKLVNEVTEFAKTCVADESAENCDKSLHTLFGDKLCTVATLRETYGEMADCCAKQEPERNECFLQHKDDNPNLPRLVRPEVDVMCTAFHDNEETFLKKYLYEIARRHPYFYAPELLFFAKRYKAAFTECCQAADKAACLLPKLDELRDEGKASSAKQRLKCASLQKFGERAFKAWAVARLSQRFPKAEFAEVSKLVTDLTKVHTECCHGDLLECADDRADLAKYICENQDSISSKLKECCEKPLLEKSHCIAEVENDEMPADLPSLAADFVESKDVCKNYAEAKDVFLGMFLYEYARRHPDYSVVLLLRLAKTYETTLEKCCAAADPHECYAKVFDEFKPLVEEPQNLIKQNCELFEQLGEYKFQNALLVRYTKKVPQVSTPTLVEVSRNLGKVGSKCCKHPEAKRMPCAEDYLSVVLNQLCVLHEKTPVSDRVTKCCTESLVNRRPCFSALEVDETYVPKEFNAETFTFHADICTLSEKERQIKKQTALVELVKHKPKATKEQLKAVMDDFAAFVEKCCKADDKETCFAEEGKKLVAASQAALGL
Chain of HSA (P02768 25-609): as above
Chain of transferrin (P02787 20-698, species assumed): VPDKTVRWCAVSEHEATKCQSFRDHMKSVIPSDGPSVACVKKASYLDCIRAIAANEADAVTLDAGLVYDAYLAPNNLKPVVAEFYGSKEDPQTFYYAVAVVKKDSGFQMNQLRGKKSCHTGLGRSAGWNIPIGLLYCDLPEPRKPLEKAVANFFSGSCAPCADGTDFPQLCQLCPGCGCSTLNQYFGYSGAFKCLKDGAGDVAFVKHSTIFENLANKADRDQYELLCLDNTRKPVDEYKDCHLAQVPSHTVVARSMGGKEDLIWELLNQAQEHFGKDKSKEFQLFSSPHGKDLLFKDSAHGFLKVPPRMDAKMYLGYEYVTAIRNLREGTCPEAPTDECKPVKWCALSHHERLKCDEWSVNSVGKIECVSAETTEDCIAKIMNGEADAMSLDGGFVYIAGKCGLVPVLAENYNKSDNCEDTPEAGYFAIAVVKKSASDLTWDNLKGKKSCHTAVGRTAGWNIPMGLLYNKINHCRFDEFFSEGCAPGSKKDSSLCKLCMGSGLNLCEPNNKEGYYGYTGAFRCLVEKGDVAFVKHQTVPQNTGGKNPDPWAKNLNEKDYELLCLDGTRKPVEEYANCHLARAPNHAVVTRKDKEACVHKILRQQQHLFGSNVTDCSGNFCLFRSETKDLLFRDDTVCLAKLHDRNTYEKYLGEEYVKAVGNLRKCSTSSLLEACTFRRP

SMILES | behavior in size-exclusion chromatography after incubation with HSA (HSA) | KA relative to HSA [2] | further results
COc1cccc2c1C(=O)c1c(O)c3c(c(O)c1C2=O)C[C@@](O)(/C(CO)=N/NS(=O)(=O)c1ccccc1/C(=C1/C=C(Br)C(=O)C(Br)=C1C)c1cc(Br)c(O)c(Br)c1C)C[C@@H]3O[C@H]1CC(N)[C@H](O)C(C)O1 (stereo partly drawn) [BC-DOX1] | behavior like that of bromcresol green or bromcresol green sulfonic acid | – | binding constant relative to human serum albumin compared with free doxorubicin [1]: several orders of magnitude greater
Cc1c(C2(c3cc(Br)c(O)c(Br)c3C)OS(=O)(=O)c3ccccc32)cc(Br)c(O)c1Br [Bromcresol green, reference compound] | elute together with HSA | – | affinity for other plasma proteins (transferrin): do not exhibit high affinity
COc1cccc2c1C(=O)c1c(O)c3c(c(O)c1C2=O)C[C@](O)(/C(CO)=N/NC(=O)CCOCCOCCOCCOCCOCCOCCNS(=O)(=O)c1ccc2c(N=Nc4ccccc4)c(O)ccc2c1)C[C@@H]3O[C@H]1CC(N)[C@H](O)C(C)O1 (stereo partly drawn) [DOXO-CROC-HEXA] | – | 7.2 × 10^7 | –
CCCCCCCCCCCCCCCCCC(=O)N/N=C(\CO)[C@@]1(O)Cc2c(O)c3c(c(O)c2[C@@H](O[C@H]2CC(N)[C@H](O)C(C)O2)C1)C(=O)c1c(OC)cccc1C3=O (stereo partly drawn) [DOXO-SAH] | – | 6.1 × 10^6 | –
COc1cccc2c1C(=O)c1c(O)c3c(c(O)c1C2=O)C[C@](O)(/C(CO)=N/NC(=O)CCOCCOCCOCCOCCOCCOCCNC(=O)c1cc(I)cc(I)c1I)C[C@H]3O[C@H]1CC(N)[C@H](O)C(C)O1 (stereo partly drawn) [DOXO-TIB-HEXA] | – | 5.5 × 10^5 | –
COc1cccc2c1C(=O)c1c(O)c3c(c(O)c1C2=O)C[C@@](O)(C(=O)CO)C[C@@H]3O[C@H]1C[C@H](N)[C@H](O)[C@H](C)O1 [Doxorubicin, doxorubicin, reference compound] | – | 2.9 × 10^3 | KA relative to HSA, literature value [3]: 2.7 × 10^3
